# Assay results reported in patent publication US20180153868A1, “TREATMENT OF BREAST CANCER BY CONCOMITANT ADMINISTRATION OF A BROMODOMAIN INHIBITOR AND A SECOND AGENT” (Gilead Sciences, Inc., priority 2016, published 2018).
# Read-outs that look alike come from different tables or passages of the source.
# Experiments:
# Assay type in all cases: cell-based
# MCF7 [1] = experiment: Cell viability assay (Cell Titer-Glo), MCF7; conditions: for EC50: Homo sapiens, 72 hours
# Method: (§1) The cell viability was determined using the Cell Titer-Glo luminescent cell viability assay, according to the manufacturer's instructions. Luminescence was measured using a PHERAstar FS microplate reader (BMG LABTECH, German). The half-maximal inhibitory concentration (IC50) values were calculated using the prism plot software. The effects of treatments were measured by conducting three independent experiments.
# T47D [2] = experiment: Cell viability assay (Cell Titer-Glo), T47D; conditions: for EC50: Homo sapiens, 96 hours
# Method: as §1
# MCF7 [3] = experiment: Colony formation / survival assay, MCF7; conditions: 7 days
# Method: (§2) Colony Formation or Survival Asasys: Cells were seeded in 12-well plates in triplicates at a density of 600 cells per well for MCF7 and 800 cells per well for T47D cells. Cells were treated after overnight incubated. Medium was changed every 3-4 days until cluster of colonies were formed. The plates were incubated for 7 days for MCF7 cells and xx days for T47D cells. Colonies in the plate were fixed and stained with Formaldehyde (1.0% v/v), Methanol (1%) and crystal violet (1% w/v) for xx min; thoroughly washed with water and air dry and counted using with automated colony counter (Gel counter. OXFORD OPTRONIC Inc). Results are present as average colony count ±SD.
# (§3) Impact on cell growth can also be evaluated in colony survival assays. To evaluate the effect of compound (I-1) on colony survival, MCF7 and T47D were plated at low density and treated with several doses of compound (I-1) alone and in combination with fulvestrant. The number of colonies formed after 7 days in culture was evaluated (FIG. 9). […] In the presence of fulvestrant, colony number was reduced 73%, and 20 nM compound (I-1) further reduced colony number by 92%. […] In the presence of fulvestrant, colony number was reduced 41%.
# ER = ER protein expression in MCF7 and T47D (FIG. 1); conditions: 24 hours
# Text: (§4) ER, when bound by estrogen or […] such as fulvestrant, undergoes a conformational change that promotes ubiquitination and degradation of the receptor.
# T47D [4] = experiment: Colony formation / survival assay, T47D
# Method: as §2, §3
# [5] = test system: ER targets GREB1, MYC, and PGR; experiment: Protein expression of ER targets in MCF7 and T47D (FIG. 1); conditions: 24 hours
# Text: as §4
# [6] = compound (I-1) alone, read-out: average EC50, cell viability
# [7] = in the presence of fulvestrant, read-out: EC50, cell viability
# [8] = 20 nM compound (I-1) in the presence of fulvestrant
# [9] = single agent fulvestrant treatment
structure (smiles),measurement,setting,value
"Cc1noc(C)c1-c1cc(C(O)(c2ccccn2)c2ccccn2)c2nc(C3CC3)[nH]c2c1 [compound (I-1), (2-cyclopropyl-6-(3,5-dimethylisoxazol-4-yl)-1H-benzo[d]imidazol-4-yl)di(pyridin-2-yl)methanol]",EC50,MCF7 [1]; [6],61.3 ± 8.4 nM
same,EC50,MCF7 [1]; [7],25 ± 10.6 nM
same,increase in potency (EC50 alone vs in combination with fulvestrant),MCF7 [1]; p value 0.00027,2.5 fold
same,EC50,T47D [2]; [6],95.3 ± 16.5 nM
same,EC50,T47D [2]; [7],64 ± 5 nM
same,increase in potency (EC50 alone vs in combination with fulvestrant),T47D [2]; p value 0.0030,1.5 fold
same,reduced colony number,MCF7 [3]; 20 nM compound (I-1) alone,48%
same,further reduced colony number,MCF7 [3]; [8],92%
same,effect on colonies,MCF7 [3]; 60 nM compound (I-1) alone,nearly all colonies eliminated
same,effect on colonies,MCF7 [3]; 120 nM compound (I-1) alone,nearly all colonies eliminated
same,ER protein expression,ER; 100 or 50 nM compound (I-1) added under estrogen or fulvestrant treatments,further reduced ER protein expression
same,effect on colony number,T47D [4]; 20 nM compound (I-1) alone,no significant effect
same,effect on colony number,T47D [4]; [8],no significant effect
same,reduced colony number,T47D [4]; 60 nM compound (I-1) alone,53%
same,further reduced colony number,T47D [4]; 60 nM compound (I-1) in the presence of fulvestrant,66%
same,reduced colony number,T47D [4]; 120 nM compound (I-1) alone,60%
same,further reduced colony number,T47D [4]; 120 nM compound (I-1) in the presence of fulvestrant,78%
same,"ER target (GREB1, MYC, PGR) expression",[5]; addition of 50 or 100 nM compound (I-1),consistently reduced target expression
same,"ER target (GREB1, MYC, PGR) protein reduction",[5]; combination of fulvestrant and compound (I-1),most pronounced protein reduction
"C[C@]12CC[C@@H]3c4ccc(O)cc4C[C@@H](CCCCCCCCC[S+]([O-])CCCC(F)(F)C(F)(F)F)[C@H]3[C@@H]1CC[C@@H]2O (stereo partly shown) [fulvestrant, reference compound]",reduced growth (average),MCF7 [1]; [9],47.0±19.6%
same,reduced growth (average),T47D [2]; [9],35.8±5.0%
same,colony number reduced,MCF7 [3]; fulvestrant alone,73%
same,ER protein levels,ER; 12 nM Fulvestrant,reduced ER protein levels
same,colony number reduced,T47D [4]; fulvestrant alone,41%
same,"estrogen induction of GREB1, MYC, PGR protein expression",[5]; in the presence of fulvestrant (12 nM),significantly reduced
